What was measured:
[1] = tested on: phospho-ERK1/2 (Thr202/Tyr204); test: Phospho-ERK cellular assay; assay type: cell-based; conditions: Homo sapiens; KYSE-520 cells, 2 h at 37° C, TR-FRET; read-out: pERK IC50
Experimental: ERK phosphorylation was detected using the “Advanced phospho-ERK1/2 (Thr202/Tyr204)” TR-FRET kit (Cisbio, Cat #64AERPEG/H), following the manufacturer reagents and instructions.
Briefly, 20.000/well KYSE-520 cells (DSMZ ACC 371) were plated in 6 μL RPMI-1640 (Invitrogen) growth medium, into 384 white low-volume high base TC microplates (Greiner). After an overnight incubation, cells were treated with DMSO serial diluted compounds and incubated for 2 h at 37° C. After incubation, 2 μL/well of 4×Lysis Buffer (Cisbio 64KL1FDF), were added and incubated with cells for 30 min on gentle shaking. Finally, lysates were added with 2 μL/well of Eu cryptate (donor) and D2 (acceptor) conjugated antibodies (as provided by the Cisbio kit #64AERPEG/H) diluted 1:100 in Detection Buffer (as provided by the Cisbio kit #64AERPEG/H). Plates were then sealed and incubated at rt in the dark. After an overnight incubation, the TR-FRET signal was detected on a suitable reader (Envision, PerkinElmer).
The lower the TR-FRET signal the higher the higher the SHP2 inhibition in cells.
The activity of each compound dilution was calculated as percentage between vehicle DMSO treated cells and no cells, 0% inhibition and 100% inhibition respectively. The percentage activity is fitted against the compound dilutions with a four-parameter logistic regression. The inflection point (i.e. the concentration at which half-maximal inhibition is achieved) is the IC50.
Legend: “+” indicates IC50 equal or higher than 0.5 μM; “++” indicates IC50 less than 0.5 μM and higher or equal to 0.1 μM; “+++” indicates IC50 less than 0.1 μM.

[2] = target: T1, SHP-2 enzyme (Met1-Leu525), SHP2wt (Homo sapiens, UniProt Q06124); test: SHP2 inhibition enzymatic assay; assay type: biochemical; conditions: 0.5 nM SHP-2 activated by 500 nM IRS1 peptide, 75 μM DiFMUP substrate
T1 construct: synthetized by Origene, Met1-Leu525, cat #TP750155; purchased Origene TP750155
T1 sequence (Q06124 1-525): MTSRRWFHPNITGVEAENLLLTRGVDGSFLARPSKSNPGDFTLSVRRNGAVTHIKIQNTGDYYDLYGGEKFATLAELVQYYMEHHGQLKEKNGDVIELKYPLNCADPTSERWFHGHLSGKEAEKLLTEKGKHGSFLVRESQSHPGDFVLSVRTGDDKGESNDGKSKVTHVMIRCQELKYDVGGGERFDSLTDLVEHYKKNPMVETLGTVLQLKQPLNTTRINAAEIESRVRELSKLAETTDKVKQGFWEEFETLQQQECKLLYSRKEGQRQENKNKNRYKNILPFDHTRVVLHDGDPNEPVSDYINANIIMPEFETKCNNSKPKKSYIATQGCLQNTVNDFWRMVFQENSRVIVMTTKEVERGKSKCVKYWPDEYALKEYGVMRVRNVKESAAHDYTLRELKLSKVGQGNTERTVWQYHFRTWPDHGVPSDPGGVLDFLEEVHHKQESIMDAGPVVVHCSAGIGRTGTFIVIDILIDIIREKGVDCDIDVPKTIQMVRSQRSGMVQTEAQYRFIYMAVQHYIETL
Experimental: The assay was performed as described in YP Chen et al, Nature (535) 2016. Assay volume of 20 μL/well was assembled in 384 well black polystyrene low-binding microplates (Greiner), using the following buffer: 60 mM HEPES pH 7.2, 75 mM NaCl, 75 mM KCl, 1 mM EDTA pH 8, 0.05% tween-20, 5 mM DTT. The SHP-2 enzyme (synthetized by Origene, Met1-Leu525, cat #TP750155) was used at a final concentration of 0.5 nM. The enzyme was activated by 500 nM IRS1 peptide (sequence: H2N-LN(pY)IDLDLV(dPEG8)LST(pY)ASINFQK-amide; Wang et al., iScience 25,104009, Apr. 15, 2022, https://doi.org/10.1016/j.isci.2022.104009) and incubated with 75 μM DiFMUP (Sigma) as substrate.
Briefly, DMSO serially diluted testing compounds were transferred to the bottom of the assay plate. SHP2 was then added together with the IRS1 peptide 30 min post incubation, the DiFMUP substrate was added to the reaction and incubated 30 min at rt. Finally 5 μL of 160 μM bpV (potassium bisperoxo[1,10-phenanthroline]oxovanadate [V], Sigma) were added to stop and quench the reaction. The fluorescence was detected by a microplate reader (Envision, PerkinElmer) according to the DiFMUP excitation and emission wavelength. The lower the fluorescence the higher the SHP2 inhibition.
The activity of each compound dilution was calculated as percentage of inhibition between vehicle (DMSO, 0% inhibition) and no enzyme (100% inhibition). The percentage inhibition is fitted against the compound dilutions with a four-parameter logistic regression. The inflection point (i.e. the concentration at which half-maximal inhibition is achieved) is the IC50.
Legend: A indicates IC50 less or equal to 0.05 μM; B indicates IC50 greater than 0.05 μM and lower or equal to 0.3 μM.

Row | Compound | IC50 [1] | IC50 [2]
1 | N[C@@H]1c2ccnn2CC12CCN(c1cnc(Sc3cc(F)cc(F)c3)cn1)CC2 [Example 50, (S)-1-(5-((3,5-difluorophenyl)thio)pyrazin-2-yl)-4′H,6′H-spiro[piperidine-4,5′-pyrrolo[1,2-b]pyrazol]-4′-amine] | < 100 nM | ≤ 50 nM
2 | N[C@@H]1c2ccnn2CC12CCN(c1cnc(Sc3cccc(F)c3)cn1)CC2 [Example 51, (S)-1-(5-((3-fluorophenyl)thio)pyrazin-2-yl)-4′H,6′H-spiro[piperidine-4,5′-pyrrolo[1,2-b]pyrazol]-4′-amine] | 100 to 500 nM | ≤ 50 nM
3 | N[C@@H]1c2ccnn2CC12CCN(c1cnc(Sc3cccc4c3COC4)cn1)CC2 [Example 52, (S)-1-(5-((1,3-dihydroisobenzofuran-4-yl)thio)pyrazin-2-yl)-4′H,6′H-spiro[piperidine-4,5′-pyrrolo[1,2-b]pyrazol]-4′-amine] | < 100 nM | ≤ 50 nM
4 | N[C@@H]1c2ccnn2CC12CCN(c1cnc(Sc3cccc(F)c3F)cn1)CC2 [Example 53, (S)-1-(5-((2,3-difluorophenyl)thio)pyrazin-2-yl)-4′H,6′H-spiro[piperidine-4,5′-pyrrolo[1,2-b]pyrazol]-4′-amine] | < 100 nM | ≤ 50 nM
5 | N[C@@H]1c2ccnn2CC12CCN(c1cnc(Sc3ccnc(C(F)(F)F)c3Cl)cn1)CC2 [Example 54, (S)-1-(5-((3-chloro-2-(trifluoromethyl)pyridin-4-yl)thio)pyrazin-2-yl)-4′H,6′H-spiro[piperidine-4,5′-pyrrolo[1,2-b]pyrazol]-4′-amine] | < 100 nM | ≤ 50 nM
6 | COc1c(F)ccc(Sc2cnc(N3CCC4(CC3)Cn3nccc3[C@H]4N)cn2)c1F [Example 55, (S)-1-(5-((2,4-difluoro-3-methoxyphenyl)thio)pyrazin-2-yl)-4′H,6′H-spiro[piperidine-4,5′-pyrrolo[1,2-b]pyrazol]-4′-amine] | < 100 nM | ≤ 50 nM
7 | N[C@@H]1c2ccnn2CC12CCN(c1cnc(Sc3cccc(Cl)c3C(F)(F)F)cn1)CC2 [Example 56, (S)-1-(5-((3-chloro-2-(trifluoromethyl)phenyl)thio)pyrazin-2-yl)-4′H,6′H-spiro[piperidine-4,5′-pyrrolo[1,2-b]pyrazol]-4′-amine] | < 100 nM | ≤ 50 nM
8 | Cc1c(F)cccc1Sc1cnc(N2CCC3(CC2)Cn2nccc2[C@H]3N)cn1 [Example 57, (S)-1-(5-((3-fluoro-2-methylphenyl)thio)pyrazin-2-yl)-4′H,6′H-spiro[piperidine-4,5′-pyrrolo[1,2-b]pyrazol]-4′-amine] | < 100 nM | ≤ 50 nM
9 | N[C@@H]1c2ccnn2CC12CCN(c1cnc(Sc3cccc(C(F)F)c3F)cn1)CC2 [Example 58, (S)-1-(5-((3-(difluoromethyl)-2-fluorophenyl)thio)pyrazin-2-yl)-4′H,6′H-spiro[piperidine-4,5′-pyrrolo[1,2-b]pyrazol]-4′-amine] | < 100 nM | ≤ 50 nM
10 | N[C@@H]1c2ccnn2CC12CCN(c1cnc(Sc3ccc(C(F)F)cc3F)cn1)CC2 [Example 59, (S)-1-(5-((4-(difluoromethyl)-2-fluorophenyl)thio)pyrazin-2-yl)-4′H,6′H-spiro[piperidine-4,5′-pyrrolo[1,2-b]pyrazol]-4′-amine] | 100 to 500 nM | ≤ 50 nM
11 | COc1cccc(Sc2cnc(N3CCC4(CC3)Cn3nccc3[C@H]4N)cn2)c1F [Example 60, (S)-1-(5-((2-fluoro-3-methoxyphenyl)thio)pyrazin-2-yl)-4′H,6′H-spiro[piperidine-4,5′-pyrrolo[1,2-b]pyrazol]-4′-amine] | < 100 nM | ≤ 50 nM
12 | N[C@@H]1c2ccnn2CC12CCN(c1cnc(Sc3cccc4ncccc34)cn1)CC2 [Example 61, (S)-1-(5-(quinolin-5-ylthio)pyrazin-2-yl)-4′H,6′H-spiro[piperidine-4,5′-pyrrolo[1,2-b]pyrazol]-4′-amine] | < 100 nM | ≤ 50 nM
13 | Cc1c(Cl)cncc1Sc1cnc(N2CCC3(CC2)Cn2nccc2[C@H]3N)cn1 [Example 62, (S)-1-(5-((5-chloro-4-methylpyridin-3-yl)thio)pyrazin-2-yl)-4′H,6′H-spiro[piperidine-4,5′-pyrrolo[1,2-b]pyrazol]-4′-amine] | 100 to 500 nM | ≤ 50 nM
14 | N[C@@H]1c2ccnn2CC12CCN(c1cnc(Sc3ccccc3Cl)cn1)CC2 [Example 63, (S)-1-(5-((2-chlorophenyl)thio)pyrazin-2-yl)-4′H,6′H-spiro[piperidine-4,5′-pyrrolo[1,2-b]pyrazol]-4′-amine] | < 100 nM | ≤ 50 nM
15 | COc1ccc(Sc2cnc(N3CCC4(CC3)Cn3nccc3[C@H]4N)cn2)c(F)c1 [Example 64, (S)-1-(5-((2-fluoro-4-methoxyphenyl)thio)pyrazin-2-yl)-4′H,6′H-spiro[piperidine-4,5′-pyrrolo[1,2-b]pyrazol]-4′-amine] | < 100 nM | ≤ 50 nM
16 | Cn1cnc2ccc(Sc3cnc(N4CCC5(CC4)Cn4nccc4[C@H]5N)cn3)cc21 [Example 65, (S)-1-(5-((1-methyl-1H-benzo[d]imidazol-6-yl)thio)pyrazin-2-yl)-4′H,6′H-spiro[piperidine-4,5′-pyrrolo[1,2-b]pyrazol]-4′-amine] | < 100 nM | ≤ 50 nM
17 | N#Cc1ccc(Sc2cnc(N3CCC4(CC3)Cn3nccc3[C@H]4N)cn2)c2cccnc12 [Example 66, (S)-5-((5-(4′-amino-4′H,6′H-spiro[piperidine-4,5′-pyrrolo[1,2-b]pyrazol]-1-yl)pyrazin-2-yl)thio)quinoline-8-carbonitrile] | < 100 nM | ≤ 50 nM
18 | N[C@@H]1c2ccnn2CC12CCN(c1cnc(Sc3ccc(C(F)(F)F)c4ncccc34)cn1)CC2 [Example 67, (S)-1-(5-((8-(trifluoromethyl)quinolin-5-yl)thio)pyrazin-2-yl)-4′H,6′H-spiro[piperidine-4,5′-pyrrolo[1,2-b]pyrazol]-4′-amine] | < 100 nM | ≤ 50 nM
19 | N[C@@H]1c2ccnn2CC12CCN(c1cnc(Sc3ccc(F)c4ncccc34)cn1)CC2 [Example 68, (S)-1-(5-((8-fluoroquinolin-5-yl)thio)pyrazin-2-yl)-4′H,6′H-spiro[piperidine-4,5′-pyrrolo[1,2-b]pyrazol]-4′-amine] | < 100 nM | ≤ 50 nM
20 | N[C@@H]1c2ccnn2CC12CCN(c1cnc(Sc3cccc(C4CC4)c3F)cn1)CC2 [Example 69, (S)-1-(5-((3-cyclopropyl-2-fluorophenyl)thio)pyrazin-2-yl)-4′H,6′H-spiro[piperidine-4,5′-pyrrolo[1,2-b]pyrazol]-4′-amine] | < 100 nM | ≤ 50 nM
